This is an account of results in ChEMBL document CHEMBL1148505, “Inhibition of Plasmodium falciparum fatty acid biosynthesis: evaluation of FabG, FabZ, and FabI as drug targets for flavonoids” (J Med Chem, 2006).

Assay [1] deals with Plasmodium falciparum. As to the kind of experiment: Antiplasmodial activity against chloroquine-sensitive Plasmodium falciparum NF54. Type of assay: functional, organism-based.
The target in assay [2] is T1, 3-oxoacyl-acyl-carrier protein reductase (Plasmodium falciparum, UniProt Q965D6).
T1 sequence (Q965D6 whole entry): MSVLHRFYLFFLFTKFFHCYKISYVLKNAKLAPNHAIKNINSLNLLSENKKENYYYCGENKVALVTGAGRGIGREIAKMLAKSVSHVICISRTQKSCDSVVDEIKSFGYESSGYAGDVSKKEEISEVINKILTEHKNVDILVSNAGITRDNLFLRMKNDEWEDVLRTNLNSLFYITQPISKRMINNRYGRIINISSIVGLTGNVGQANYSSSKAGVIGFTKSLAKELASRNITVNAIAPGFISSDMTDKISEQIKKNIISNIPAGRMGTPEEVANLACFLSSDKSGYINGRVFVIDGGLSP
Description: Inhibition of FabG.

Assay [3] concerns Plasmodium falciparum. Description: Antiplasmodial activity against chloroquine-resistant Plasmodium falciparum K1. Type of assay: functional, organism-based.
A further assay has as its target T2, Fatty acid synthase (Plasmodium falciparum, UniProt Q965D7).
T2 sequence (Q965D7 whole entry): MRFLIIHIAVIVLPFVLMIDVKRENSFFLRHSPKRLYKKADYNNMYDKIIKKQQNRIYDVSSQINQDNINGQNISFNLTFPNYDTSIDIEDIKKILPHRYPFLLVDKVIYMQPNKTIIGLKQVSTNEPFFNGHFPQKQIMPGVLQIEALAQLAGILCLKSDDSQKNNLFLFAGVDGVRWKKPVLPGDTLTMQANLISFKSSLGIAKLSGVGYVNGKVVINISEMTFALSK
As to the kind of experiment: Inhibition of FabZ.

The target of assay [4] is T3, Enoyl-acyl-carrier protein reductase (Plasmodium falciparum, UniProt Q965D5).
T3 sequence (Q965D5 whole entry): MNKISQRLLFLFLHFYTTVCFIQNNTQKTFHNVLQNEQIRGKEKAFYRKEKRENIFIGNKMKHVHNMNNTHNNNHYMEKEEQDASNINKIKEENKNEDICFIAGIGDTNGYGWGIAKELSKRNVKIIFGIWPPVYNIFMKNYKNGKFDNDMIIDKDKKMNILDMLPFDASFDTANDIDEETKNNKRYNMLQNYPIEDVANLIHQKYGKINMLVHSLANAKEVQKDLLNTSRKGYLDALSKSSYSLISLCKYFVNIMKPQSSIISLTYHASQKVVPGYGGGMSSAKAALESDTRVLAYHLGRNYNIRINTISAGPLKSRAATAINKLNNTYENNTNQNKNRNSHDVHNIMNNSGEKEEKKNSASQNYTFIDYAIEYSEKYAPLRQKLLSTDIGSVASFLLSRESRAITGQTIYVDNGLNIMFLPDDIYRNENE
As to the kind of experiment: Inhibition of FabI.

Assay [5] concerns the target T4, 3-oxoacyl-acyl-carrier protein reductase (Plasmodium falciparum) (UniProt Q965D6).
T4 sequence (whole entry): T1 sequence (Q965D6 whole entry)
As to the kind of experiment: Inhibition of FabG at 100 uM.

Assay [6] concerns the target T5, Fatty acid synthase (Plasmodium falciparum) (UniProt Q965D7).
T5 sequence (whole entry): T2 sequence (Q965D7 whole entry)
Description: Inhibition of FabZ at 100 uM.

In assay [7] the target is T6, Enoyl-acyl-carrier protein reductase (Plasmodium falciparum) (UniProt Q965D5).
T6 sequence (whole entry): T3 sequence (Q965D5 whole entry)
Description: Inhibition of FabI at 100 uM.

Molecules are shown by their SMILES. Calls of active or inactive are those of the source. The rule behind the calls is not given here.

As for `O=C(O[C@@H]1Cc2c(O)cc(O)cc2O[C@@H]1c1ccc(O)c(O)c1)c1cc(O)c(O)c(O)c1` [EPICATECHIN GALLATE], the IC50 with Plasmodium falciparum [1] stood at 40 µM; in assay [2] it was 1 µM; in the assay with Plasmodium falciparum [3], 11.3 µM; against Fatty acid synthase, 0.4 µM; in assay [4] it was 0.2 µM.
As for `O=C(O[C@@H]1Cc2c(O)cc(O)cc2O[C@H]1c1cc(O)c(O)c(O)c1)c1cc(O)c(O)c(O)c1` [GALLOCATECHIN GALLATE], the IC50 in the assay on Plasmodium falciparum [1] was found to be 40.1 µM; with Plasmodium falciparum [3], 6.2 µM; on Fatty acid synthase, 0.6 µM; in assay [4], 0.5 µM.
On to `O=c1cc(-c2ccc(O)cc2)oc2cc(O)cc(O)c12` [APIGENIN], for which the IC50 worked out at 17.4 µM with Plasmodium falciparum [1] and 50 µM in assay [4]. The outcome in assay [5] and in assay [6] was inactive.
The compound `O=c1cc(-c2ccccc2)oc2ccccc12` [FLAVONE] yielded a half-maximal inhibitory concentration (IC50) in the assay on Plasmodium falciparum [1] of 60.8 µM. Also, the result in assay [5], in assay [6] and in assay [7] was inactive.
On to `O=c1cc(-c2ccccc2)oc2cccc(O)c12` [5-HYDROXYFLAVONE], for which inhibition with Plasmodium falciparum [1] was half-maximal at 65.9 µM (IC50). Further, the outcome in assay [5], in assay [6] and in assay [7] was inactive.
As for `O=c1c(O)c(-c2ccccc2)oc2cc(O)cc(O)c12` [GALANGIN], the 50% inhibitory concentration (IC50) with Plasmodium falciparum [1] was 39.4 µM; in assay [2] it was 100 µM. Also, the outcome in assay [6] and in assay [7] was inactive.
On to `COc1cc2oc(-c3ccc(O)cc3)cc(=O)c2c(O)c1OC` [CIRSIMARITIN], for which the values for the IC50 (in the assay with Plasmodium falciparum [1]; in assay [2]) were 16.9 µM and 70 µM, respectively. Moreover, the result in assay [6] and in assay [7] was inactive.
On to `O=c1cc(-c2ccccc2)oc2ccc(O)cc12` [6-HYDROXYFLAVONE], for which the values for the IC50 in the assay on Plasmodium falciparum [1] and on Fatty acid synthase were 5.3 µM and 30 µM, respectively. Moreover, the result in assay [5] and in assay [7] was inactive.
Turning to `Oc1cc(O)c2c(c1)O[C@H](c1ccc(O)c(O)c1)[C@@H](O)C2` [CIANIDANOL], 144 µM corresponded to half-maximal inhibition in the assay on Plasmodium falciparum [1] (IC50). The outcome in assay [5], in assay [6] and in assay [7] was inactive.
For the compound `O=C(O[C@@H]1Cc2c(O)cc(O)cc2O[C@@H]1c1cc(O)c(O)c(O)c1)c1cc(O)c(O)c(O)c1` [EPIGALOCATECHIN GALLATE], the 50% inhibitory concentration (IC50) with Plasmodium falciparum [1] amounted to 25.5 µM; in the assay with Plasmodium falciparum [3], 9.9 µM; at Fatty acid synthase it was 0.4 µM; in assay [4], 0.2 µM.
Regarding `O=c1c(O)c(-c2ccccc2)oc2cc(O)ccc12` [3,7-DIHYDROXYFLAVONE], the IC50 with Plasmodium falciparum [1] came out at 49.2 µM; in assay [4] it was 10 µM. For the same compound, the outcome in assay [5] and in assay [6] was inactive.
On to `Oc1cc(O)c2c(c1)O[C@H](c1ccc(O)c(O)c1)[C@H](O)C2` [(-)-EPICATECHIN], for which the half-maximal inhibitory concentration (IC50) with Plasmodium falciparum [1] was > 150 µM. The outcome in assay [5], in assay [6] and in assay [7] was inactive.
Turning to `O=c1c(-c2ccc(O)cc2)coc2cc(O)ccc12` [DAIDZEIN], the IC50 worked out at 104 µM in the assay on Plasmodium falciparum [1] and 30 µM on Fatty acid synthase. Moreover, the result in assay [5] and in assay [7] was inactive.
For `COc1cc2c(c(O)c1OC)C(=O)C[C@@H](c1ccc(O)cc1)O2`, inhibition in the assay with Plasmodium falciparum [1] was half-maximal at 8.8 µM (IC50). Further, the result in assay [5], in assay [6] and in assay [7] was inactive.
As to `COc1cc(-c2oc3cc(O)cc(O)c3c(=O)c2O)ccc1O` [ISORHAMNETIN], the IC50 is 14.7 µM with Plasmodium falciparum [1], 8.3 µM in assay [2] and 5 µM in assay [4]. Moreover, the result in assay [6] was inactive.
`COc1ccc2c(=O)cc(-c3ccccc3)oc2c1OC` returned a 50% inhibitory concentration (IC50) in the assay on Plasmodium falciparum [1] of 40.9 µM. In addition, the outcome in assay [5], in assay [6] and in assay [7] was inactive.
On to `COc1cc(O)c2c(=O)cc(-c3ccc(O)cc3)oc2c1` [GENKWANIN], for which half-maximal inhibition in the assay on Plasmodium falciparum [1] (IC50) required 111 µM. Besides, the result in assay [5], in assay [6] and in assay [7] was inactive.
For the compound `O=c1c(O)c(-c2ccc(O)c(O)c2)oc2cc(O)ccc12` [FISETIN], the half-maximal inhibitory concentration (IC50) amounted to 8.2 µM in the assay with Plasmodium falciparum [1]; 4.1 µM in assay [2]; 6.5 µM in the assay on Plasmodium falciparum [3]; 2 µM against Fatty acid synthase; 1 µM in assay [4].
In the case of `O=c1c(-c2ccc(O)cc2)coc2cc(O)cc(O)c12` [GENISTEIN], the IC50 was found to be 38.2 µM with Plasmodium falciparum [1] and 7 µM against Fatty acid synthase. Also, the outcome in assay [5] and in assay [7] was inactive.
`Oc1cc(O)c2c(c1)O[C@@H](c1cc(O)c(O)c(O)c1)[C@H](O)C2` [(-)-GALLOCATECHIN]: in the assay on Plasmodium falciparum [1], the IC50 is > 150 µM. For the same compound, the outcome in assay [5], in assay [6] and in assay [7] was inactive.
On to `O=c1cc(-c2ccccc2)oc2cc(O)ccc12` [7-HYDROXYFLAVONE], for which the IC50 in the assay on Plasmodium falciparum [1] came to 65.5 µM; against Fatty acid synthase, 20 µM. The result in assay [5] and in assay [7] was inactive.
In the case of `COc1cc(O)c2c(=O)c(OC)c(-c3ccc(OC)c(OC)c3)oc2c1` [RETUSIN], in the assay on Plasmodium falciparum [1], the half-inhibitory concentration (IC50) is 73.3 µM. Besides, the outcome in assay [5], in assay [6] and in assay [7] was inactive.
As for `COc1cc(OC)c2c(c1C)O[C@H](c1ccccc1)CC2=O`, the half-inhibitory concentration (IC50) was 19.8 µM in the assay on Plasmodium falciparum [1] and 40 µM at Fatty acid synthase. Further, the outcome in assay [5] and in assay [7] was inactive.
As for `O=C1C[C@@H](c2ccc(O)cc2)Oc2cc(O)cc(O)c21` [NARINGENIN], the concentration for half-maximal inhibition (IC50) in the assay on Plasmodium falciparum [1] stood at 141 µM. In addition, in assay [5], the result was Active. Also, the result in assay [6] and in assay [7] was inactive.
For `O=c1c(O)c(-c2ccccc2)oc2ccc(O)cc12`, the midpoint of inhibition in the assay with Plasmodium falciparum [1], the IC50, lay at 36.4 µM. For the same compound, the result in assay [5], in assay [6] and in assay [7] was inactive.
As to `Oc1cc(O)c2c(c1)O[C@@H](c1ccc(O)c(O)c1)[C@H](O)C2` [(-)-CATECHIN], in the assay with Plasmodium falciparum [1], the 50% inhibitory concentration (IC50) was > 150 µM. The outcome in assay [5], in assay [6] and in assay [7] was inactive.
As for `COc1ccc(-c2cc(=O)c3c(O)c(O)c(OC)cc3o2)cc1` [LADANEIN], in the assay on Plasmodium falciparum [1], the half-maximal inhibitory concentration (IC50) worked out at 9 µM. Also, the outcome in assay [5], in assay [6] and in assay [7] was inactive.
As to `COc1ccc(-c2coc3cc(O)cc(O)c3c2=O)cc1` [BIOCHANIN], the IC50 with Plasmodium falciparum [1] was 34.3 µM; against Fatty acid synthase, 8 µM. The outcome in assay [5] and in assay [7] was inactive.
Take `O=c1c(O)c(-c2ccccc2)oc2ccccc12` [FLAVONOL]: it took 24 µM to reach half-maximal inhibition with Plasmodium falciparum [1] (IC50). Moreover, the outcome in assay [5], in assay [6] and in assay [7] was inactive.
Regarding `Oc1cc(O)c2c(c1)O[C@H](c1cc(O)c(O)c(O)c1)[C@H](O)C2` [EPIGALLOCATECHIN], the IC50 in the assay with Plasmodium falciparum [1] was > 150 µM. Moreover, the result in assay [5], in assay [6] and in assay [7] was inactive.
As to `O=c1cc(-c2ccccc2)oc2cc(O)cc(O)c12` [CHRYSIN], the IC50 was 29.8 µM in the assay with Plasmodium falciparum [1] and 10 µM in assay [2]. The outcome in assay [6] and in assay [7] was inactive.
With `Oc1cc(O)c2c(c1)O[C@@H](c1ccc(O)c(O)c1)[C@@H](O)C2` [(+)-EPICATECHIN], the IC50 in the assay on Plasmodium falciparum [1] was > 150 µM. For the same compound, the outcome in assay [5], in assay [6] and in assay [7] was inactive.
As for `O=c1c(O)c(-c2ccc(O)cc2)oc2cc(O)cc(O)c12` [KAEMPFEROL], the half-maximal inhibitory concentration (IC50) with Plasmodium falciparum [1] was found to be 30.4 µM; in assay [2], 4 µM; in assay [4] it was 20 µM. Also, the result in assay [6] was inactive.

A word on the IC50: it is the concentration that gives 50% inhibition. The low end stands for inhibition by little substance, the high end for a need for much substance.
